From US20130123215A1, “2,5-DIOXOIMIDAZOLIDIN-1-YL-3-PHENYLUREA DERIVATIVES AS FORMYL PEPTIDE RECEPTOR LIKE-1 (FPRL-1) RECEPTOR MODULATORS” (ALLERGAN, INC., priority 2011, published 2013)

Target: T1, FPRL-1 (Homo sapiens, UniProt P25090)
T1 construct: expressed in transfected cells; host or cells: CHO-Gα16 cells stably expressing FPRL1
T1 sequence (P25090 1-351): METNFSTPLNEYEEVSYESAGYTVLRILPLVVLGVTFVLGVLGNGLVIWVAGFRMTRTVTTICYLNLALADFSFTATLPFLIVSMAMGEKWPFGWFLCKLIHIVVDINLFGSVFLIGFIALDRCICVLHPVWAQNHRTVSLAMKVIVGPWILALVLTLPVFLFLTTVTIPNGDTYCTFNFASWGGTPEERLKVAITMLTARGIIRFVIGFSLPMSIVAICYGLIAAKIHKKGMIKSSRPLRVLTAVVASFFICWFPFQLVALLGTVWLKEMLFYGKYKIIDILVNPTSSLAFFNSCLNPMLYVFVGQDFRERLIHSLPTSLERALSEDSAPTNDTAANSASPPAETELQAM
Assay: FPRL-1 Ga16-CHO compound-induced calcium activity (FLIPR Tetra)
Assay type: cell-based
Conditions: CHO-Gα16 cells stably expressing FPRL1; calcium activity on FLIPR Tetra; tested at 0.61 to 10,000 nM; read-out: FPRL-1 Ga16-CHO EC50
Procedure: HEK-Gα16 and CHO-Gα16 cells stably expressing FPRL1 were cultured in (F12, 10% FBS, 1% PSA, 400 μg/ml geneticin and 50 μg/ml hygromycin) and HEK-Gqi5 cells stable expressing FPR1 were cultured in (DMEM high glucose, 10% FBS, 1% PSA, 400 μg/ml geneticin and 50 μg/ml hygromycin). In general, the day before the experiment, 18,000 cells/well were plated in a 384-well clear bottom poly-d-lysine coated plate. The following day the screening compound-induced calcium activity was assayed on the FLIPR^Tetra. The drug plates were prepared in 384-well microplates using the EP3 and the MultiPROBE robotic liquid handling systems. Compounds were tested at concentrations ranging from 0.61 to 10,000 nM. Results are expressed as EC50 (nM) and efficacy values.

- EC50: 2.9 nM
Compound: CC1(CCc2cccc(O)c2)NC(=O)N(NC(=O)Nc2ccc(Br)cc2F)C1=O (stereo not shown) [Compound 53, 1-(4-Bromo-2-fluorophenyl)-3-(4-(3-hydroxyphenethyl)-4-methyl-2,5-dioxoimidazolidin-1-yl)urea]
